Laboratory results reported in US10131652B2, “Pyrimidinyloxy benzene derivatives as herbicides” (E. I. DU PONT DE NEMOURS AND COMPANY, priority 2014, dated 2018).

Tests used:
Type in all cases: in vivo
rice (Oryza sativa) = assay: Test C flooded paddy test plant response; conditions: Flood, 250 g ai/ha; scale of 0 to 100 where 0 is no effect and 100 is complete control; 13 to 15 days
Protocol: (§1) Plant species in the flooded paddy test selected from rice (Oryza sativa), small-flower umbrella sedge (Cyperus difformis), ducksalad (Heteranthera limosa), and bamyardgrass (Echinochloa crus-galli) were grown to the 2-leaf stage for testing. At time of treatment, test pots were flooded to 3 cm above the soil surface, treated by application of test compounds directly to the paddy water, and then maintained at that water depth for the duration of the test. Treated plants and controls were maintained in a greenhouse for 13 to 15 days, after which time all species were compared to controls and visually evaluated. Plant response ratings, summarized in Table C, are based on a scale of 0 to 100 where 0 is no effect and 100 is complete control. A dash (-) response means no test result.

[1] = tested on: barnyardgrass (Echinochloa crus-galli); assay: Test C flooded paddy test plant response; conditions: Flood, 250 g ai/ha; scale of 0 to 100 where 0 is no effect and 100 is complete control; 13 to 15 days
Protocol: as §1

[2] = tested on: small-flower umbrella sedge (Cyperus difformis); assay: Test C flooded paddy test plant response; conditions: Flood, 250 g ai/ha; scale of 0 to 100 where 0 is no effect and 100 is complete control; 13 to 15 days
Protocol: as §1

[3] = tested on: ducksalad (Heteranthera limosa); assay: Test C flooded paddy test plant response; conditions: Flood, 250 g ai/ha; scale of 0 to 100 where 0 is no effect and 100 is complete control; 13 to 15 days
Protocol: as §1

[4] = tested on: ragweed (common ragweed, Ambrosia elatior); assay: Test B pre-/postemergence plant response
Description: (§2) Seeds of plant species selected from bamyardgrass (Echinochloa crus-galli), kochia (Kochia scoparia), ragweed (common ragweed, Ambrosia elatior), Italian ryegrass (Lolium multiflorum), large (Lg) crabgrass (Digitaria sanguinalis), giant foxtail (Setaria faberii), momingglory (Ipomoea spp.), pigweed (Amaranthus retroflexus), velvetleaf (Abutilon theophrasti), wheat (Triticum aestivum), and corn (Zea mays) were planted into a blend of loam soil and sand and treated preemergence with a directed soil spray using test chemicals formulated in a non-phytotoxic solvent mixture which included a surfactant. At the same time, plants selected from these crop and weed species and also blackgrass (Alopecurus myosuroides), and galium (catchweed bedstraw, Galium aparine) were planted in pots containing the same blend of loam soil and sand and treated with postemergence applications of test chemicals formulated in the same manner. Plants ranged in height from 2 to 10 cm and were in the one- to two-leaf stage for the postemergence treatment. Treated plants and untreated controls were maintained in a greenhouse for approximately 10 days, after which time all treated plants were compared to untreated controls and visually evaluated for injury. Plant response ratings, summarized in Table B, are based on a 0 to 100 scale where 0 is no effect and 100 is complete control. A dash (-) response means no test result.

kochia (Kochia scoparia) = assay: Test B pre-/postemergence plant response
Description: as §2

corn (Zea mays) = assay: Test B pre-/postemergence plant response
Description: as §2

[5] = tested on: giant foxtail (Setaria faberii); assay: Test B pre-/postemergence plant response
Description: as §2

[6] = tested on: Italian ryegrass (Lolium multiflorum); assay: Test B pre-/postemergence plant response
Description: as §2

[7] = tested on: pigweed (Amaranthus retroflexus); assay: Test B pre-/postemergence plant response
Description: as §2

[8] = tested on: wheat (Triticum aestivum); assay: Test B pre-/postemergence plant response
Description: as §2

[9] = tested on: barnyardgrass (Echinochloa crus-galli); assay: Test B pre-/postemergence plant response
Description: as §2

[10] = tested on: galium (catchweed bedstraw, Galium aparine); assay: Test B postemergence plant response
Description: (§3) At the same time, plants selected from these crop and weed species and also blackgrass (Alopecurus myosuroides), and galium (catchweed bedstraw, Galium aparine) were planted in pots containing the same blend of loam soil and sand and treated with postemergence applications of test chemicals formulated in the same manner. Plants ranged in height from 2 to 10 cm and were in the one- to two-leaf stage for the postemergence treatment. Treated plants and untreated controls were maintained in a greenhouse for approximately 10 days, after which time all treated plants were compared to untreated controls and visually evaluated for injury. Plant response ratings, summarized in Table B, are based on a 0 to 100 scale where 0 is no effect and 100 is complete control. A dash (-) response means no test result.

[11] = tested on: blackgrass (Alopecurus myosuroides); assay: Test B postemergence plant response
Description: as §3

[12] = 125 g ai/ha, postemergence, 0 to 100 scale, 0 no effect, 100 complete control
[13] = Postemergence, 500 g ai/ha, 0 to 100 scale (0 no effect, 100 complete control)
[14] = Preemergence, 125 g ai/ha, 0 to 100 scale where 0 is no effect and 100 is complete control
[15] = Preemergence, 500 g ai/ha, 0 to 100 scale where 0 is no effect and 100 is complete control
[16] = 31 g ai/ha, Postemergence, 0 to 100 scale, 0 no effect, 100 complete control
[17] = Preemergence, 31 g ai/ha, 0 to 100 scale (0 no effect, 100 complete control)

| SMILES | Rice plant response rating (rice (Oryza sativa)) | Barnyardgrass plant response rating [1] | Sedge, Umbrella plant response rating [2] | Ducksalad plant response rating [3] | Plant response rating, Ragweed [4, 12] | Plant response rating, Ragweed [4, 14] | Plant response rating, Kochia (kochia (Kochia scoparia); [12]) | Plant response rating, Kochia (kochia (Kochia scoparia); [14]) | Plant response rating, Corn (corn (Zea mays); [12]) | Plant response rating, Foxtail, Giant [5, 12] | Plant response rating, Foxtail, Giant [5, 14] | Plant response rating, Ryegrass, Italian [6, 12] | Plant response rating, Ryegrass, Italian [6, 14] | Plant response rating, Pigweed [7, 12] | Plant response rating, Pigweed [7, 14] | Plant response rating, Wheat [8, 12] | Plant response rating, Barnyardgrass [9, 12] | Plant response rating, Barnyardgrass [9, 14] | Plant response rating, Galium [10, 12] | Plant response rating, Blackgrass [11, 12] | other results |
| --- | --- | --- | --- | --- | --- | --- | --- | --- | --- | --- | --- | --- | --- | --- | --- | --- | --- | --- | --- | --- | --- |
| Cn1nncc1-c1ccccc1Oc1ncc(Cl)cn1 [Compound 52] | 0 | 0 | 0 | 0 | 20 | 0 | 20 | 0 | 0 | 0 | 0 | 0 | 0 | 30 | 40 | 0 | 0 | 0 | 40 | 0 | Plant response rating, Ragweed [4, 13]: 20; Plant response rating, Ragweed [4, 15]: 0; Plant response rating, Kochia (kochia (Kochia scoparia); [13]): 50; Plant response rating, Kochia (kochia (Kochia scoparia); [15]): 30; Plant response rating, Corn (corn (Zea mays); [13]): 10; Plant response rating, Foxtail, Giant [5, 13]: 0; Plant response rating, Foxtail, Giant [5, 15]: 0; Plant response rating, Ryegrass, Italian [6, 13]: 0; Plant response rating, Ryegrass, Italian [6, 15]: 0; Plant response rating, Pigweed [7, 13]: 60; Plant response rating, Pigweed [7, 15]: 50; Plant response rating, Wheat [8, 13]: 20; Plant response rating, Barnyardgrass [9, 13]: 10; Plant response rating, Barnyardgrass [9, 15]: 0; Plant response rating, Galium [10, 13]: 50; Plant response rating, Blackgrass [11, 13]: 10 |
| CC(C)(C)c1cc(-c2ccccc2Oc2ncc(Cl)cn2)no1 [Compound 59] | 0 | 0 | 0 | 0 | 0 | 0 | 0 | 0 | 0 | 10 | 10 | 0 | 0 | 40 | 0 | 0 | 10 | 0 | 40 | 0 | Plant response rating, Ragweed [4, 13]: 0; Plant response rating, Ragweed [4, 15]: 0; Plant response rating, Kochia (kochia (Kochia scoparia); [13]): 20; Plant response rating, Kochia (kochia (Kochia scoparia); [15]): 0; Plant response rating, Corn (corn (Zea mays); [13]): 10; Plant response rating, Foxtail, Giant [5, 13]: 50; Plant response rating, Foxtail, Giant [5, 15]: 60; Plant response rating, Ryegrass, Italian [6, 13]: 0; Plant response rating, Ryegrass, Italian [6, 15]: 0; Plant response rating, Pigweed [7, 13]: 50; Plant response rating, Pigweed [7, 15]: 30; Plant response rating, Wheat [8, 13]: 10; Plant response rating, Barnyardgrass [9, 13]: 10; Plant response rating, Barnyardgrass [9, 15]: 10; Plant response rating, Galium [10, 13]: 90; Plant response rating, Blackgrass [11, 13]: 40 |
| Cc1nc(-c2ccccc2Oc2ncc(Cl)cn2)co1 [Compound 70] | 0 | 0 | 0 | 0 | 0 | 0 | 0 | 0 | 0 | 0 | 0 | 0 | 0 | 20 | 0 | 0 | 0 | 0 | 0 | 0 | Plant response rating, Ragweed [4, 16]: 0; Ragweed plant response rating [4, 17]: 0; Plant response rating, Kochia (kochia (Kochia scoparia); [16]): 0; Kochia plant response rating (kochia (Kochia scoparia); [17]): 0; Plant response rating, Corn (corn (Zea mays); [16]): 0; Plant response rating, Foxtail, Giant [5, 16]: 0; Foxtail, Giant plant response rating [5, 17]: 0; Plant response rating, Ryegrass, Italian [6, 16]: 0; Ryegrass, Italian plant response rating [6, 17]: 0; Plant response rating, Pigweed [7, 16]: 10; Pigweed plant response rating [7, 17]: 0; Plant response rating, Wheat [8, 16]: 0; Plant response rating, Barnyardgrass [9, 16]: 0; Barnyardgrass plant response rating [9, 17]: 0; Plant response rating, Galium [10, 16]: 0; Plant response rating, Blackgrass [11, 16]: 0 |
| CC(C)n1cnc(-c2ccccc2Oc2ncc(Cl)cn2)n1 [Compound 73] | 0 | 0 | 0 | 0 | 0 | 0 | 0 | 0 | 0 | 0 | 0 | 0 | 0 | 10 | 0 | 0 | 0 | 0 | 10 | 0 | Plant response rating, Ragweed [4, 16]: 0; Ragweed plant response rating [4, 17]: 0; Plant response rating, Kochia (kochia (Kochia scoparia); [16]): 0; Kochia plant response rating (kochia (Kochia scoparia); [17]): 0; Plant response rating, Corn (corn (Zea mays); [16]): 0; Plant response rating, Foxtail, Giant [5, 16]: 0; Foxtail, Giant plant response rating [5, 17]: 0; Plant response rating, Ryegrass, Italian [6, 16]: 0; Ryegrass, Italian plant response rating [6, 17]: 0; Plant response rating, Pigweed [7, 16]: 0; Pigweed plant response rating [7, 17]: 0; Plant response rating, Wheat [8, 16]: 0; Plant response rating, Barnyardgrass [9, 16]: 0; Barnyardgrass plant response rating [9, 17]: 0; Plant response rating, Galium [10, 16]: 0; Plant response rating, Blackgrass [11, 16]: 0 |
| CCn1nc(C(F)(F)F)cc1-c1c(C#N)cccc1Oc1ncc(Cl)cn1 [Compound 89] | 0 | 0 | 80 | 30 | 10 | 0 | 70 | 0 | 30 | 40 | 90 | 0 | 0 | 90 | 100 | 0 | 30 | 70 | 50 | 20 | Plant response rating, Ragweed [4, 16]: 10; Ragweed plant response rating [4, 17]: 0; Plant response rating, Kochia (kochia (Kochia scoparia); [16]): 50; Kochia plant response rating (kochia (Kochia scoparia); [17]): 0; Plant response rating, Corn (corn (Zea mays); [16]): 10; Plant response rating, Foxtail, Giant [5, 16]: 10; Foxtail, Giant plant response rating [5, 17]: 40; Plant response rating, Ryegrass, Italian [6, 16]: 0; Ryegrass, Italian plant response rating [6, 17]: 0; Plant response rating, Pigweed [7, 16]: 60; Pigweed plant response rating [7, 17]: 100; Plant response rating, Wheat [8, 16]: 0; Plant response rating, Barnyardgrass [9, 16]: 10; Barnyardgrass plant response rating [9, 17]: 10; Plant response rating, Galium [10, 16]: 10; Plant response rating, Blackgrass [11, 16]: 10 |
